In patent US20040191842A1, “Chemopreventive and therapeutic aspects of polyphenolic compositions and assays” (Medical College of Georgia Research Institute, Inc., priority 2002, published 2004):

Key:
[1] = system: aged normal human primary epidermal keratinocytes; experiment: BrdU incorporation assay, aged keratinocytes; type: cell-based; conditions: EGCG 15-50 μM, 15-day and 20-day keratinocytes
Protocol: Culturing normal human epithelial cells. The pooled normal human primary epidermal keratinocytes were purchased from Cambrex (Baltimore, Md.) and sub-cultured in the specific growth media provided by the manufacturer (KGM-2). […] Exponentially growing keratinocytes were treated and harvested in their early passages (2-3 passages). […] Analysis of DNA synthesis using the BrdU incorporation method. The BrdU cell proliferation kit was purchased from Oncogene Research Products (Boston, Mass.). […] Experiments were repeated three times in triplicate for each experiment.

Apaf-1 = experiment: Western blot of Apaf-1 in epidermal keratinocytes; type: cell-based, human; conditions: increasing concentrations of EGCG
Protocol: Western blot analysis. The keratinocytes and the mammary epithelial cells were placed in KGM-2 and MEGM, respectively, overnight prior to treatment. Cells were lysed, after 24-hour treatment, in RIPA buffer (1% NP-40, 1% sodium deoxycholate, 0.1% SDS, 0.15 M NaCl, 0.01 M sodium phosphate, pH 7.2, and 1% Trasylol) containing proteinase inhibitors (1 mM PMSF, 1 μg/ml each of aprotinin, leupeptin, and pepstatin). The concentration of protein in each sample was determined using the BioRad DC Protein Assay and spectrophotometry. 50 μg of protein from each sample and a BioRad molecular weight standard marker were run on a 10% SDS-PAGE, followed by transfer to nitrocellulose membranes. Nonspecific binding to the membranes was blocked with 10% nonfat milk. Primary polyclonal (rabbit) antibodies and a horseradish peroxidase-conjugated goat anti-rabbit secondary antibody were used in conjunction with the ECL Chemiluminescence Kit (Amersham Pharmacia Biotech, New Jersey) and membranes were exposed to radiographic films for detection. Western blots were digitized for comparison of the intensity for each band using the ImageTool image analysis software program (University of Texas Health Science Center, San Antonio, Tex.). The integrated density of each band was measured using identical 1480 pixel areas of each Apfa-1 or Actin band at a scale of densities from 0 to 255. […]

NHEK = experiment: MTT assay (SDH activity), NHEK; type: cell-based, human; conditions: EGCG at various concentrations or 0.2 mg/ml GTP, 24 h
From the text: Succinate dehydrogenase activity assay (MTT assay).

[2] = system: normal human mammary epithelial cells (HMEC); experiment: Morphology of mammary epithelial cells; type: cell-based; conditions: 50 μM EGCG
Protocol: Cell lines and cell culture. The normal human keratinocytes (NHEK CC-2507) were purchased from Cambrex (East Rutherford, N.J.) and maintained in KGM-2 medium (Cambrex). The OSC2 cell line was previously described in Example 1. The OSC2 subclones were established by retroviral transfection of the parental OSC2 cell line. These clones were maintained in 45% Dulbecco's Modified Eagle's Medium (DMEM), 45% Ham's F12 medium and 10% fetal calf serum, 100 I.U/ml penicillin, 100 μg/ml streptomycin and 5 μg/ml hydrocortisone. The normal human mammary epithelial cells (HMEC) were maintained in MEGM medium (Cambrex). All cell cultures were maintained in a 37° C. incubator with 5% CO2. Light photographs were taken with a SPOT RT digital camera system (Diagnostic Instruments, Sterling Heights, Mich.) linked to a Nikon Phase Contrast-2 microscope at an original magnification of 400×. Fluorescent photomicrographs were taken with a SPOT color digital camera system using the ZEISS Axiovert 10. Fluorescence was generated by a ZEISS AttoArc 2 source with an original magnification of 400×. Experiments were repeated three times.

MCF7 cells = experiment: Cell growth assay, MCF7 cells; type: cell-based, human; conditions: 50 μM EGCG, 96 hours
Protocol: Cell growth assay. MCF7 cells were seeded (5×10^4) in 25 cm^2 tissue culture flask for 24 hours prior to EGCG or GTPPs incubation. Cells from each flask were trypsinized and counted at each time point on a hemacytometer.

caspase 14 = experiment: Immunoblot of caspase 14 protein in NHEK; type: cell-based, human
Protocol: (§1) To identify additional factors those suppress EGCG -induced apoptosis and facilitate cell differentiation in NHEK, exponentially growing NHEK (Cambrex, Baltimore, Md.) were exposed to 100 μM EGCG for 0, 2, 6 and 24 hours, prior to total RNA isolation using the Qiagen RNeasy mini kit (Valencia, Calif.), which was followed by RT-PCR labeling and hybridization with the Human Apoptosis Macroarray membrane (Sigma-Genosys, The Woodlands, Tex.). Total cell lysates also were collected following a variety of EGCG treatments. The protein levels for caspase 14 and p21 were determined by immuno-blotting using antibodies specific for caspase 14 and p21 (Santa Cruz Biotechnology, Santa Cruz, Calif.).

p21/WAF1 = experiment: Apoptosis macroarray, p21/WAF1 mRNA in NHEK; type: cell-based, human; conditions: 100 μM EGCG
Protocol: as §1
Normal human epidermal keratinocytes (NHEK; Cambrex), and oral squamous cell carcinoma (OSC2) cells, originally from gingival tissue, were compared. Exponentially growing cells were exposed to 50 or 100 μM EGCG for 0 hours, 2 hours, 6 hours or 24 hours. Cells were harvested for total RNA, which was examined by apoptosis macroarrays (Sigma Genosys), followed by phosphorimagery and data analysis (GeneSpring). Protein production of expressed genes was confirmed by Western blotting of whole cell lysates.

[3] = system: salivary acenar cells (AC) and duct cells (DC), HSG and OSC tumor cells; experiment: Protection of salivary gland cells from CDDP and UVC (SDH, BrdU); conditions: pretreatment of EGCG
From the text: Human immortalized salivary acenar cells (AC) and duct cells (DC), along with human salivary gland tumor cells (HSG, a radiation-resistant cell line) and oral squamous carcinoma cells (OSC) were either treated by CDDP or irradiated by UVC with or without the presence of EGCG, followed by determination of the mitochondrial succinate dehydrogenase (SDH) activity, a measurement of mitochondrial damage and BrdU incorporation determination.

caspase 3 = experiment: Caspase 3 activity assay, mammary epithelial cells; type: cell-based, human; conditions: 100 μM EGCG, 24 hours
Protocol: Caspase 3 activity assay. The Caspase 3 Apoptosis Detection Kit was purchased from Santa Cruz Biotech. Inc. In a 24 well tissue culture plate, 10^5 cells/well of control or treated cells in triplicates were plated. […] To each well, 100 μl of 2×reaction buffer was added with 10 mM DTT. Finally, 5 μl of DEVD-AFC substrate was added to each well containing cell lysates. The reaction mixtures were incubated for 1 hour at 37° C. The caspase 3 activity in each well was measured using a fluorescence plate reader set for 405 nanometer (nm) excitation and 505 nm emission.

O=C(O[C@@H]1Cc2c(O)cc(O)cc2O[C@@H]1c1cc(O)c(O)c(O)c1)c1cc(O)c(O)c(O)c1 [EGCG, (−)-epigallocatechin-3-gallate]
BrdU incorporation [1]: slight negative impact on BrdU incorporation
Apaf-1 levels (Apaf-1): stable basal levels of Apaf-1
SDH activity (MTT assay) (NHEK): not significantly affected
morphology ([2]; 24 hours): little change in morphology
cell death ([2]; 48 hours): Significant cell death was observed
cell number compared to untreated cultures (MCF7 cells): only an insignificant decrease in cell number
production of immunoreactive caspase 14 increased (caspase 14; 30 μM EGCG (Example 10)): 5 fold
increase in caspase 14 protein (caspase 14; 30 μM EGCG, 48 hours): 26 fold
increase in caspase 14 protein (caspase 14; 100 μM EGCG, 24 hours): 2 fold
increase in caspase 14 protein (caspase 14; 100 μM EGCG, 48 hours): 5 folds
increase in caspase 14 protein (caspase 14; EGCG at or below 50 μM, 24 hours): > 5 fold
p21 mRNA level, of untreated control (p21/WAF1; 2 hours): 70.3%
p21 mRNA level, of untreated control (p21/WAF1; 6 hours): 50.4%
p21 mRNA level, of control (p21/WAF1; 24 hours): 32.7%
protection from CDDP and UVC cytotoxicity [3]: significantly protected the normal salivary gland cells from CDDP and UVC, but not the tumor cells
increase in caspase 3 activity compared to control (caspase 3): 3 fold
